Data on five compounds can be found in ChEMBL document CHEMBL1133312, “S-nitrosothiols as novel, reversible inhibitors of human rhinovirus 3C protease” (Bioorg Med Chem Lett, 2000).

SMILES strings stand for the structures. Square brackets hold non-standard residues; d marks the D form. Peptide text beside a SMILES is read from it. Cys(NO) = N[C@@H](CSN=O)C(=O)O

The test system of assay [1] is rhinovirus B14. The assay is described as follows: Compound was evaluated for the inactivation of HRV 14 3C protease activity expressed as KI. Format: functional, human rhinovirus type 14.
For assay [2], the system named is rhinovirus B14. The assay is described as follows: Compound was evaluated for the inactivation of HRV 14 3C protease activity expressed as kinact. Type of assay: functional, human rhinovirus type 14.

Take `C[C@@H](CSN=O)C(=O)N1CCC[C@H]1C(=O)O`: in the assay on rhinovirus B14 [1], the Ki came to 2110 µM. In the assay on rhinovirus B14 [2], this compound yielded a K inact of 0.457 min⁻¹.

Compound `CC(=O)N[C@@H](C(=O)NC1C(O)OC(CO)C(O)C1O)C(C)(C)SN=O` (stereo not given in full) came in with a Ki in the assay on rhinovirus B14 [1] of 5040 µM. This compound registered a K inact in the assay on rhinovirus B14 [2] of 0.982 min⁻¹.

`CC(=O)N[C@@H](C(=O)O)C(C)(C)SN=O`: the Ki with rhinovirus B14 [1] amounted to 1860 µM. The compound further returned a K inact with rhinovirus B14 [2] of 0.243 min⁻¹.

With `CC(=O)N[C@@H](CCC(=O)O)C(=O)N[C@@H](C)C(=O)N[C@@H](CC(C)C)C(=O)N[C@@H](Cc1ccccc1)C(=O)N[C@@H](CCC(N)=O)C(=O)N[C@@H](CSN=O)C(=O)NCC(=O)O` (Ac-EALFQ[Cys(NO)]G-OH), in the assay with rhinovirus B14 [1], the Ki turned out to be 20 µM. The same compound registered a K inact with rhinovirus B14 [2] of 0.107 min⁻¹.

In the assay on rhinovirus B14 [1], `N[C@@H](CCC(=O)N[C@@H](CSN=O)C(=O)NCC(=O)O)C(=O)O` [S-NITROSOGLUTATHIONE] returned a Ki of 360 µM. This compound registered a K inact in the assay on rhinovirus B14 [2] of 0.237 min⁻¹.
